In patent US20050255568A1, “Methods and compositions for amino acid production” (priority 2003, published 2005):

Experiments:
[1] = target: T1, O-Acetylhomoserine sulfhydrylase (MetY) (Corynebacterium glutamicum, UniProt Q79VI4); conditions: cited from earlier work
T1 sequence (Q79VI4 1-437): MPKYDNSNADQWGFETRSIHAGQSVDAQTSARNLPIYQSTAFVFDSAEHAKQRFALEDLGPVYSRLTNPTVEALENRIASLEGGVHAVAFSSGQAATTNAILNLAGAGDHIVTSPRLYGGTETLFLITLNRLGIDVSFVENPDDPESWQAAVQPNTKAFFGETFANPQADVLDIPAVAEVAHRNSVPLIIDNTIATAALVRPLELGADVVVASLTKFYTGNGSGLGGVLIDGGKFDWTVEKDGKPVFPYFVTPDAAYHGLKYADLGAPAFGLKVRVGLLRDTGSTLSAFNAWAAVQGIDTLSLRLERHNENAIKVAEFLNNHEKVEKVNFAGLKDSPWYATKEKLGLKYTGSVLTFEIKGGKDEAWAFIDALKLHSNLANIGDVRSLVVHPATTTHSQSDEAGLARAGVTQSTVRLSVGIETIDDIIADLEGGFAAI

C. glutamicum MetA = target: T2, C. glutamicum MetA (Corynebacterium glutamicum, UniProt O68640); format: biochemical
T2 construct: crude protein extracts derived from C. glutamicum strains MA-442 and MA-449 which contain both endogenous and episomal C. glutamicum MetA and MetY genes; expressed in transfected cells; host or cells: C. glutamicum MA-442 (MA-428 derivative of ATCC 13032) carrying episomal plasmid MB-4135 (lacIQ-trcRBS, C. glutamicum metA-RBS-metY, both wild type); crude extract
T2 sequence (O68640 1-377): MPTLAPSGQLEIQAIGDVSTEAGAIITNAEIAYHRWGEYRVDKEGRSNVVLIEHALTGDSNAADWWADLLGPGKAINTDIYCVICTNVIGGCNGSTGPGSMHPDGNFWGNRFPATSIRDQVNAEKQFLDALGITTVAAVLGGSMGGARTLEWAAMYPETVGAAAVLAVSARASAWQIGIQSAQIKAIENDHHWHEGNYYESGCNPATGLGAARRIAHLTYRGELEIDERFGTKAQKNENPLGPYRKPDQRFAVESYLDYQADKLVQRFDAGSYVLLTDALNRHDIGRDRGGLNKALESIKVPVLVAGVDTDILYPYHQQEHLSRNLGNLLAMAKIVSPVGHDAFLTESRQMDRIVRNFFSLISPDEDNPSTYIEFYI
Experimental: MetA activity in C. glutamicum expressing endogenous and episomal metA genes was determined. MetA activity was assayed in crude protein extracts using a protocol described by Kredich and Tomkins (J. Biol. Chem.241(21):4955-4965, 1966). […] Briefly, 1 μg of protein extract was added to a microtiter plate. Reaction mix (250 μl; 100 mM tris-HCl pH 7.5, 2mM 5,5′-Dithiobis(2-nitrobenzoic acid) (DTN), 2 mM sodium EDTA, 2 mM acetyl CoA, 2 mM homoserine) was added to each well of the microtiter plate. In the course of the reactions, MetA activity liberates CoA from acetyl-CoA. A disulfide interchange occurs between the CoA and DTN to produce thionitrobenzoic acid. The production of thionitrobenzoic acid is followed spectrophotometrically. Absorbance at 412 nm was measured every 5 minutes over a period of 30 minutes. A well without protein extract was included as a control. […] Inhibitors were added directly to the reaction mix before it was added to the protein extract. […] Experiments were performed in the presence and absence of IPTG that induces expression of the plasmid borne MetA and MetY genes.

In the case of CC(=O)OC[C@H](N)C(=O)O [O-acetylserine], the “MetY enzyme activity (in words)” value [1] is listed as “inhibited”.

In the case of C[S+](CC[C@H](N)C(=O)[O-])C[C@H]1O[C@@H](n2cnc3c(N)ncnc32)[C@H](O)[C@@H]1O (stereo partly drawn) [S-AM, S-adenosyl methionine], the “MetA activity of MA-442 extracts in the presence of S-AM” value (C. glutamicum MetA; 0.2 mM S-AM) is reported as “reduced”.

In the case of N[C@@H](CCO)C(=O)O [homoserine], the “MetY enzyme activity (in words)” value [1] is given as “inhibited”.

In the case of CSCC[C@H](N)C(=O)O [methionine], the “MetA activity of MA-442 extracts in the presence of methionine” value (C. glutamicum MetA; 5 mM methionine) is listed as “reduced”, the “reduction in MetY enzyme activity” value ([1]; 0.5 mM methionine, combined allosteric regulation and repression) is listed as 99% and the “MetY enzyme activity (in words)” value [1] is listed as “inhibited”.
